Results published in PMC9202851, “Antitubercular activity assessment of fluorinated chalcones, 2-aminopyridine-3-carbonitrile and 2-amino-4H-pyran-3-carbonitrile derivatives: In vitro, molecular docking and in-silico drug likeliness studies” (PLoS ONE, 2022).
In brackets after ≈: the same amount, converted by molar mass. Where two headings read alike, the source gives them in different places.

What was measured:
[1] = test system: Mycobacterium tuberculosis H37RV; test: In vitro antitubercular activity by MABA (Alamar Blue); type: cell-based; settings: for MIC: read-out: H37RV MIC
[2] = MTT cytotoxicity assay; type: cell-based; settings: LO2 normal liver cells, human normal liver cells (L02), mean of three experiments
[3] = Mycobacterium tuberculosis H37RV, MABA, Middlebrook 7H9 broth, 37°C five days
[4] = Mycobacterium tuberculosis, H37RV, 120 h, Mycobacterium tuberculosis H37RV, MABA, Middlebrook 7H9 broth, 37°C five days

SMILES	MIC [1, 4] [µM]	further results
O=C(O)c1cn(C2CC2)c2cc(N3CCNCC3)c(F)cc2c1=O [Ciprofloxacin, reference compound]	~9 (≈ 2.98 µg/mL)	MIC [1, 3]: 9 µM (≈ 2.98 µg/mL)
O=C(/C=C/c1ccccc1Cl)c1ccc(C(F)(F)F)cc1 [Compound 1]	40 (≈ 12.4 µg/mL)	
O=C(/C=C/c1cccc(Cl)c1)c1ccc(C(F)(F)F)cc1 [Compound 2]	161 (≈ 50 µg/mL)	
O=C(/C=C/c1c[nH]c2ccccc12)c1ccc(C(F)(F)F)cc1 [Compound 3]	145 (≈ 45.7 µg/mL)	
O=C(/C=C/c1ccccc1[N+](=O)[O-])c1ccc(C(F)(F)F)cc1 [Compound 4]	156 (≈ 50.1 µg/mL)	
O=C(/C=C/c1cccc([N+](=O)[O-])c1)c1ccc(C(F)(F)F)cc1 [Compound 5]	155 (≈ 49.8 µg/mL)	
O=C(/C=C/c1cccs1)c1ccc(C(F)(F)F)cc1 [Compound 6]	156 (≈ 44 µg/mL)	
O=C(/C=C/c1ccco1)c1ccc(C(F)(F)F)cc1 [Compound 7]		MIC ([1]; Mycobacterium tuberculosis, H37RV, 120 h): 177 µM (≈ 47.1 µg/mL)
O=C(/C=C/c1ccc(Cl)cc1)c1ccc(C(F)(F)F)cc1 [Compound 8]	188 (≈ 58.4 µg/mL)	
O=C(/C=C/c1ccc([N+](=O)[O-])cc1)c1ccc(C(F)(F)F)cc1 [Compound 9]	189 (≈ 60.7 µg/mL)	
O=C(/C=C/c1ccc[nH]1)c1ccc(C(F)(F)F)cc1 [Compound 10]	40 (≈ 10.6 µg/mL)	
O=C(/C=C/c1cccc(Cl)c1Cl)c1ccc(OC(F)(F)F)cc1 [Compound 11]	153 (≈ 55.3 µg/mL)	
O=C(/C=C/c1cccc(Cl)c1)c1ccc(OC(F)(F)F)cc1 [Compound 12]	153 (≈ 50 µg/mL)	
O=C(/C=C/c1c[nH]c2ccccc12)c1ccc(OC(F)(F)F)cc1 [Compound 13]	138 (≈ 45.7 µg/mL)	
O=C(/C=C/c1ccccc1[N+](=O)[O-])c1ccc(OC(F)(F)F)cc1 [Compound 14]	148 (≈ 49.9 µg/mL)	
O=C(/C=C/c1cccc([N+](=O)[O-])c1)c1ccc(OC(F)(F)F)cc1 [Compound 15]	148 (≈ 49.9 µg/mL)	
O=C(/C=C/c1cccs1)c1ccc(OC(F)(F)F)cc1 [Compound 16]	148 (≈ 44.1 µg/mL)	
O=C(/C=C/c1ccco1)c1ccc(OC(F)(F)F)cc1 [Compound 17]	168 (≈ 47.4 µg/mL)	
O=C(/C=C/c1ccc(Cl)cc1)c1ccc(OC(F)(F)F)cc1 [Compound 18]	177 (≈ 57.8 µg/mL)	
O=C(/C=C/c1ccc([N+](=O)[O-])cc1)c1ccc(OC(F)(F)F)cc1 [Compound 19]	178 (≈ 60 µg/mL)	
O=C(/C=C/c1ccc[nH]1)c1ccc(OC(F)(F)F)cc1 [Compound 20]	38 (≈ 10.7 µg/mL)	

SMILES	MIC [1, 4] [µM]	further results
N#Cc1c(-c2cccc(Cl)c2Cl)cc(-c2ccc(C(F)(F)F)cc2)nc1N [Compound 21]	33 (≈ 13.5 µg/mL)	
N#Cc1c(-c2cccc(Cl)c2)cc(-c2ccc(C(F)(F)F)cc2)nc1N [Compound 22]	134 (≈ 50.1 µg/mL)	
N#Cc1c(-c2c[nH]c3ccccc23)cc(-c2ccc(C(F)(F)F)cc2)nc1N [Compound 23]	31 (≈ 11.7 µg/mL)	
N#Cc1c(-c2ccccc2[N+](=O)[O-])cc(-c2ccc(C(F)(F)F)cc2)nc1N [Compound 24]	33 (≈ 12.7 µg/mL)	
N#Cc1c(-c2cccc([N+](=O)[O-])c2)cc(-c2ccc(C(F)(F)F)cc2)nc1N [Compound 25]	130 (≈ 50 µg/mL)	
N#Cc1c(-c2cccs2)cc(-c2ccc(C(F)(F)F)cc2)nc1N [Compound 26]		MIC [1, 3]: 33 µM (≈ 11.4 µg/mL)
N#Cc1c(-c2cccs2)cc(-c2ccc(C(F)(F)F)cc2)nc1N [Compound 27]		MIC [1, 3]: 18 µM (≈ 6.22 µg/mL)
N#Cc1c(-c2ccc(Cl)cc2)cc(-c2ccc(C(F)(F)F)cc2)nc1N [Compound 28]	38 (≈ 14.2 µg/mL)	
N#Cc1c(-c2ccc([N+](=O)[O-])cc2)cc(-c2ccc(C(F)(F)F)cc2)nc1N [Compound 29]	152 (≈ 58.4 µg/mL)	
N#Cc1c(-c2ccc[nH]2)cc(-c2ccc(C(F)(F)F)cc2)nc1N [Compound 30]	16 to 18 (≈ 5.25 to 5.91 µg/mL)	MIC [1, 3]: 17 µM (≈ 5.58 µg/mL)
N#Cc1c(-c2cccc(Cl)c2Cl)cc(-c2ccc(OC(F)(F)F)cc2)nc1N [Compound 31]	32 (≈ 13.6 µg/mL)	
N#Cc1c(-c2cccc(Cl)c2)cc(-c2ccc(OC(F)(F)F)cc2)nc1N [Compound 32]	128 (≈ 49.9 µg/mL)	
N#Cc1c(-c2c[nH]c3ccccc23)cc(-c2ccc(OC(F)(F)F)cc2)nc1N [Compound 33]		MIC [1, 3]: 30 µM (≈ 11.8 µg/mL)
N#Cc1c(-c2ccccc2[N+](=O)[O-])cc(-c2ccc(OC(F)(F)F)cc2)nc1N [Compound 34]	31 (≈ 12.4 µg/mL)	
N#Cc1c(-c2cccc([N+](=O)[O-])c2)cc(-c2ccc(OC(F)(F)F)cc2)nc1N [Compound 35]	125 (≈ 50 µg/mL)	
N#Cc1c(-c2cccs2)cc(-c2ccc(OC(F)(F)F)cc2)nc1N [Compound 36]		MIC [1, 3]: 31 µM (≈ 11.2 µg/mL)
N#Cc1c(-c2cccs2)cc(-c2ccc(OC(F)(F)F)cc2)nc1N [Compound 37]	17 (≈ 6.14 µg/mL)	
N#Cc1c(-c2ccc(Cl)cc2)cc(-c2ccc(OC(F)(F)F)cc2)nc1N [Compound 38]	36 (≈ 14 µg/mL)	
N#Cc1c(-c2ccc([N+](=O)[O-])cc2)cc(-c2ccc(OC(F)(F)F)cc2)nc1N [Compound 39]	145 (≈ 58 µg/mL)	
N#Cc1c(-c2c[nH]c3ccccc23)cc(-c2ccc(OC(F)(F)F)cc2)nc1N [Compound 40]		H37RV MIC [1, 3]: ~ 8 µM; MIC [1, 3]: 8 µM (≈ 3.15 µg/mL); Potency relative to pyrazinamide ([1]; ratio of MIC, H37RV): 3 fold; IC50 [2]: > 70 µg/mL
N#CC1=C(N)OC(c2ccc(C(F)(F)F)cc2)=CC1c1ccccc1Cl (centres unmarked) [Compound 41]	16 to 18 (≈ 6.03 to 6.78 µg/mL)	MIC [1, 3]: 17 µM (≈ 6.41 µg/mL)

SMILES	MIC [1, 4] [µM]	further results
N#CC1=C(N)OC(c2ccc(C(F)(F)F)cc2)=CC1c1cccc(Cl)c1 (centres unmarked) [Compound 42]	133 (≈ 50.1 µg/mL)	
N#CC1=C(N)OC(c2ccc(C(F)(F)F)cc2)=CC1c1c[nH]c2ccccc12 (centres unmarked) [Compound 43]	30 (≈ 11.4 µg/mL)	
N#CC1=C(N)OC(c2ccc(C(F)(F)F)cc2)=CC1c1ccccc1[N+](=O)[O-] (centres unmarked) [Compound 44]	32 (≈ 12.4 µg/mL)	
N#CC1=C(N)OC(c2ccc(C(F)(F)F)cc2)=CC1c1cccc([N+](=O)[O-])c1 (centres unmarked) [Compound 45]	129 (≈ 50 µg/mL)	
N#CC1=C(N)OC(c2ccc(C(F)(F)F)cc2)=CC1c1cccs1 (centres unmarked) [Compound 46]	32 (≈ 11.1 µg/mL)	
N#CC1=C(N)OC(c2ccc(C(F)(F)F)cc2)=CC1c1ccco1 (centres unmarked) [Compound 47]	36 (≈ 12 µg/mL)	
N#CC1=C(N)OC(c2ccc(C(F)(F)F)cc2)=CC1c1ccc(Cl)cc1 (centres unmarked) [Compound 48]	38 (≈ 14.3 µg/mL)	
N#CC1=C(N)OC(c2ccc(C(F)(F)F)cc2)=CC1c1ccc([N+](=O)[O-])cc1 (centres unmarked) [Compound 49]	151 (≈ 58.5 µg/mL)	
N#CC1=C(N)OC(c2ccc(C(F)(F)F)cc2)=CC1c1ccc[nH]1 (centres unmarked) [Compound 50]	16 to 18 (≈ 5.3 to 5.96 µg/mL)	MIC [1, 3]: 16 µM (≈ 5.3 µg/mL)
N#CC1=C(N)OC(c2ccc(OC(F)(F)F)cc2)=CC1c1cccc(Cl)c1Cl (centres unmarked) [Compound 51]	16 to 18 (≈ 6.84 to 7.69 µg/mL)	MIC [1, 3]: 16 µM (≈ 6.84 µg/mL)
N#CC1=C(N)OC(c2ccc(OC(F)(F)F)cc2)=CC1c1cccc(Cl)c1 (centres unmarked) [Compound 52]	127 (≈ 49.9 µg/mL)	
N#CC1=C(N)OC(c2ccc(OC(F)(F)F)cc2)=CC1c1c[nH]c2ccccc12 (centres unmarked) [Compound 53]	29 (≈ 11.5 µg/mL)	
N#CC1=C(N)OC(c2ccc(OC(F)(F)F)cc2)=CC1c1ccccc1[N+](=O)[O-] (centres unmarked) [Compound 54]	31 (≈ 12.5 µg/mL)	
N#CC1=C(N)OC(c2ccc(OC(F)(F)F)cc2)=CC1c1cccc([N+](=O)[O-])c1 (centres unmarked) [Compound 55]	124 (≈ 50 µg/mL)	
N#CC1=C(N)OC(c2ccc(OC(F)(F)F)cc2)=CC1c1cccs1 (centres unmarked) [Compound 56]	31 (≈ 11.3 µg/mL)	
N#CC1=C(N)OC(c2ccc(OC(F)(F)F)cc2)=CC1c1ccco1 (centres unmarked) [Compound 57]	34 (≈ 11.8 µg/mL)	
N#CC1=C(N)OC(c2ccc(OC(F)(F)F)cc2)=CC1c1ccc(Cl)cc1 (centres unmarked) [Compound 58]	36 (≈ 14.1 µg/mL)	
N#CC1=C(N)OC(c2ccc(OC(F)(F)F)cc2)=CC1c1ccc([N+](=O)[O-])cc1 (centres unmarked) [Compound 59]	144 (≈ 58.1 µg/mL)	
N#CC1=C(N)OC(c2ccc(OC(F)(F)F)cc2)=CC1c1ccc[nH]1 (centres unmarked) [Compound 60]	16 to 18 (≈ 5.56 to 6.25 µg/mL)	MIC [1, 3]: 16 µM (≈ 5.56 µg/mL)
NC(=O)c1cnccn1 [Pyrazinamide, reference compound]	~25 (≈ 3.08 µg/mL)	MIC [1, 3]: 25 µM (≈ 3.08 µg/mL)
[H]/N=C(/N)N[C@H]1[C@H](O)[C@@H](O)[C@H](O[C@@H]2O[C@@H](C)[C@](O)(C=O)[C@H]2O[C@@H]2O[C@@H](CO)[C@H](O)[C@@H](O)[C@@H]2NC)[C@@H](N/C(N)=N\[H])[C@@H]1O [Streptomycin, reference compound]	~11 (≈ 6.4 µg/mL)	MIC [1, 3]: 11 µM (≈ 6.4 µg/mL)
